Test results reported in PubChem BioAssay (NCI).
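Five compound concentrations were applied to cells in 96-well plates for 48 hours; endpoints were derived by simple linear interpolation of the resulting dose-response curve. At the TGI there is no net growth.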 Where a SMILES comes first, the peptide text is derived from it. [ ]: non-standard residue; d: D form. The star is where a group is joined. ξ: configuration not given here. Propanoyl(3-(4-MeO-Ph)) = COc1ccc(CCC(=O)*)cc1; Thr(3ξ) = CC(O)[C@H](N)C(=O)O; dNMeL = CN[C@H](CC(C)C)C(=O)O; pGlu = O=C1CC[CH](C(=O)O)N1; ξLac = CC(O)C(=O)O

Experiments:
Test in all cases: NCI anticancer screen, dose series, 48 h
BT-549 breast = test system: BT-549 breast
CCRF-CEM leukemia = test system: CCRF-CEM leukemia
M14 melanoma = test system: M14 melanoma
MDA-MB-231 breast = test system: MDA-MB-231 breast
MDA-MB-435 = test system: MDA-MB-435
MDA-N = test system: MDA-N
MOLT-4 leukemia = test system: MOLT-4 leukemia
SK-MEL-28 melanoma = test system: SK-MEL-28 melanoma
SNB-19 CNS = test system: SNB-19 CNS
SNB-75 CNS = test system: SNB-75 CNS

| Structure (SMILES) | TGI (BT-549 breast) [µM] | TGI (CCRF-CEM leukemia) [µM] | TGI (M14 melanoma) [µM] | TGI (MDA-MB-231 breast) [µM] | TGI (MDA-MB-435) [µM] | TGI (MDA-N) [µM] | TGI (MOLT-4 leukemia) [µM] | TGI (SK-MEL-28 melanoma) [µM] | TGI (SNB-19 CNS) [µM] | TGI (SNB-75 CNS) [µM] |
| --- | --- | --- | --- | --- | --- | --- | --- | --- | --- | --- |
| NC(=O)C[C@H](NC(=O)C1(NC(=O)[C@H](Cc2ccc(CP(=O)(O)O)cc2)NC(=O)C(=O)O)CCCCC1)C(=O)NCCCc1cccc2ccccc12 | > 10 | > 10 | > 10 | > 10 | > 10 | > 10 | > 10 | > 10 | > 10 | > 10 |
| CSC1(SC)N2Cc3ccccc3N=C2C1(c1ccccc1)c1ccccc1 | > 92.6 | > 65 | > 100 | > 100 | 16 | > 96.7 | > 44.9 | > 59.5 | > 100 | > 100 |
| O=C(Cn1c(=O)oc2ccc(C(=O)c3ccccc3Cl)cc21)c1ccc([N+](=O)[O-])cc1 | 75 | > 100 | 47.5 | 79.7 | 46.6 | 39.1 | > 100 | > 100 | > 100 | > 100 |
| COC(=O)[C@@H](NC(=O)[C@@H](CC(C)C)N(C)C(=O)[C@@H]1CCCN1C(=O)C(C)O)C(C)OC(=O)CCc1ccc(OC)cc1 (stereo not given in full) (H-[ξLac]P[dNMeL][Thr(3ξ)](Propanoyl(3-(4-MeO-Ph)))-OMe) | > 100 | > 100 | > 100 | > 100 | > 100 | > 100 | > 100 | > 100 | > 100 | > 100 |
| COc1nc2ccc(CNc3ccc(C(=O)O)cc3)cc2nc1OC | > 10 | > 10 | > 10 | > 10 | > 10 | > 10 | > 10 | > 10 | > 10 | > 10 |
| COc1cc2c(cc1OC(=O)c1cc3ccccc3[nH]1)N=C[C@@H]1CCCN1C2=O | 5.37 | 1.95 | 0.387 | 2.88 | 1.19 | 0.375 | 0.553 | 2.21 | 3.04 | 7.02 |
| CC(C)=CCCC1(Sc2ccccc2)C(=O)OCC1C=C(C)C (stereo not given) | > 100 | > 100 | 52.1 | > 100 | > 100 | 66.1 | 20.4 | > 100 | > 100 | > 100 |
| COc1cc(C2c3cc4c(cc3OC3(OC)COC(=O)C23)OCO4)cc(OC)c1OC (stereo not given) | > 100 | 3.05 | 8.43 | 2.08 | 0.68 | 0.319 | 12.2 | > 100 | > 26.6 | > 100 |
| CCOc1cc2c(cc1O)CC[C@@H]1[C@@H]2CC[C@]2(C)C(OS(=O)OC3CC[C@@H]4[C@H]5CCc6cc(O)c(OCC)cc6[C@@H]5CC[C@@]34C)CC[C@@H]12 (stereo not given in full) | 13.6 | > 100 | 2.58 | 29.8 | 0.548 | 0.544 | > 68 | 11.7 | 30.4 | 34.4 |
| NC(=O)c1ncn2c(=O)n(CCl)nnc12 | > 100 | > 100 | > 100 | > 100 | > 100 | > 100 | > 100 | > 100 | > 100 | > 100 |
| COc1ccc(-c2nnc(-c3ccncc3)o2)cc1 | > 100 | > 100 | > 100 | > 100 | > 100 | > 100 | > 100 | > 100 | > 100 | > 100 |
| COC(=O)C(Cc1ccccc1)NC(=O)c1ccc(CNC(=S)NCc2cccc(CNC(=S)NCc3ccccc3)c2)cc1 (stereo not given) | > 62.5 | > 62.5 | > 62.5 | > 62.5 | > 62.5 | > 62.5 | > 62.5 | > 62.5 | > 62.5 | > 62.5 |
| Cc1[nH]c(=O)nc2nc3ccc(Cl)cc3c(NC(C)(CO)CO)c12 | > 100 | > 100 | > 100 | > 81 | > 100 | > 100 | > 100 | > 100 | > 95.3 | > 96.5 |
| COC(=O)c1c(O)ccc2c1c1c(n2Cc2ccccc2OC)C(=O)c2ccccc2C1 | > 100 | 81.2 | > 100 | > 100 | > 100 | > 100 | > 100 | > 100 | > 100 | > 100 |
| COc1cc(/C=C2\N=C(C)N(n3c(-c4ccccc4)nc4ccccc4c3=O)C2=O)cc(OC)c1OC | > 100 | > 100 | > 100 | > 100 | > 100 | > 100 | > 100 | > 100 | > 100 | > 100 |
| CC(NC(=O)C(Cc1cnc[nH]1)NC(=O)C1CCC(=O)N1)C(N)=O (stereo not drawn) ([pGlu]-His-Ala-NH2; configuration not given here) | > 100 | > 100 | > 100 | > 100 | > 100 | > 100 | > 100 | > 100 | > 100 | > 100 |
| NNC(=O)CCC(NS(=O)(=O)c1ccc(Cl)cc1)C(=O)NN (stereo not given) | > 100 | > 100 | > 100 | > 100 | > 100 | > 100 | > 100 | > 100 | > 100 | > 100 |
| CN(C)CCCNc1cnc2cc3ccccc3cc2n1 | 58.9 | 88.1 | 50.5 | 41.4 | 79.2 | > 100 | 81.7 | 81.5 | > 100 | 70.6 |
| CN(C)CCNC(=O)c1cccc2[nH]c(-c3ccncc3)nc12 | 34.8 | 7.77 | 3.39 | 9.74 | 3.63 | 3.27 | > 100 | 3.93 | > 63.2 | 26.5 |
| CCCCC1(N=[N+]=[N-])C(=O)C2C=CC=C3c4ccccc4N(C1=O)C32 (stereo not given) | > 31.6 | > 31.6 | > 31.6 | > 31.6 | > 31.6 | > 31.6 | > 31.6 | > 100 | > 31.6 | 23.1 |
| COc1ccc(-c2nnc(CCCCCCCCc3nnc(-c4ccc(OC)cc4)n3N)n2N)cc1 | > 100 | > 100 | > 100 | > 100 | > 100 | > 100 | > 100 | > 100 | > 100 | > 66.4 |
| COc1cc(/C=c2/c3ccccc3n3c2cc(-c2ccccc2)[n+]3C)cc(OC)c1OC | 11.8 | > 28.9 | > 35.8 | 14.8 | 6.19 | 34.6 | > 64.9 | 19.1 | 17.9 | 15.2 |
| C[C@]12CC[C@H](O)CC1=CC[C@@H]1[C@@H]2CC[C@]2(C)c3nc(Cl)ccc3C[C@@H]12 | > 100 | > 50.4 | > 100 | > 100 | > 100 | > 100 | > 100 | > 100 | > 100 | 46.8 |
| Cc1cc2c(cc1-c1cc3c(cc1C)C(C(C)C)=C(O)C(=O)/C3=C\Nc1c(C)n(C)n(-c3ccccc3)c1=O)/C(=C/Nc1c(C)n(C)n(-c3ccccc3)c1=O)C(=O)C(O)=C2C(C)C | > 100 | > 100 | > 100 | > 100 | > 100 | > 100 | > 100 | > 100 | > 100 | > 100 |
| S=c1nc2sc3c(c2c(Nc2ccc(Br)cc2)[nH]1)CCN(N1CCc2c(sc4nc(=S)[nH]c(Nc5ccc(Br)cc5)c24)C1)C3 | > 50 | > 50 | 17.1 | > 50 | > 50 | 44.2 | > 50 | 31 | > 50 | > 50 |
| COc1ccc2oc(=Nc3ccc(F)cc3)c(C(N)=O)cc2c1 | > 100 | > 100 | > 100 | 39.3 | > 100 | > 100 | > 100 | > 100 | > 100 | 29.5 |
| Clc1cc(OCC23CC4CC(CC(C4)C2)C3)nc(OCC23CC4CC(CC(C4)C2)C3)n1 | > 100 | > 100 | > 100 | > 100 | > 100 | > 100 | > 100 | > 100 | > 100 | > 100 |
| O=C(CCc1ccc(O)c(O)c1)NCCc1ccc(O)c(O)c1 | > 100 | 78.3 | > 100 | 73.9 | 31.8 | 33.9 | > 100 | > 100 | > 100 | > 100 |
| Cc1nc2c(Cl)cc(Cl)cc2c(Cl)c1CCCl | > 100 | > 100 | > 100 | > 100 | > 100 | > 100 | > 100 | > 100 | > 100 | > 100 |
| CCOC(=O)C1C[C@H]2CO[C@H](c3ccccc3)N2C1=O (stereo not given in full) | > 100 | > 100 | > 100 | > 100 | > 100 | > 100 | > 100 | > 100 | > 100 | > 100 |
